From PubChem BioAssay AID256 (DTP/NCI, 2004)
Where “and” joins values, the source holds several entries; their conditions need not be identical. Equal values may be shown once. Inconclusive results and toxic doses are left out. How the source made its calls: active means survival T/C of 150% or more; inactive means T/C below 125% in these data.

System: CD2F1 mice, L1210 leukemia ip, survival T/C
Assay: NCI In Vivo Anticancer Drug Screen. Data for tumor model L1210 Leukemia (intraperitoneal) in CD2F1 (CDF1) mice
Details: endpoint: mean survival time, higher = longer survival
Method in brief: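 Implant tumor; dose compound or vehicle; measure endpoint in both groups; report treated divided by control.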

[1] = dose: 100.0 mg/kg/injection, schedule: Q01DX001 (ip), vehicle: saline with Tween-80
[2] = dose: 200.0 mg/kg/injection, schedule: Q01DX001 (ip), vehicle: saline with Tween-80
[3] = dose: 400.0 mg/kg/injection, schedule: Q01DX001 (ip), vehicle: saline with Tween-80
[4] = dose: 100.0 mg/kg/injection, schedule: Q01DX009 (ip), vehicle: saline with Tween-80
[5] = dose: 100.0 mg/kg/injection, schedule: Q04DX003 (ip), vehicle: saline with Tween-80
[6] = dose: 200.0 mg/kg/injection, schedule: Q01DX009 (ip), vehicle: saline with Tween-80
[7] = dose: 200.0 mg/kg/injection, schedule: Q04DX003 (ip), vehicle: saline with Tween-80
[8] = dose: 400.0 mg/kg/injection, schedule: Q04DX003 (ip), vehicle: saline with Tween-80
[9] = dose: 100.0 mg/kg/injection, schedule: Q04DX002 (ip), vehicle: saline with Tween-80
[10] = dose: 200.0 mg/kg/injection, schedule: Q04DX002 (ip), vehicle: saline with Tween-80
[11] = dose: 400.0 mg/kg/injection, schedule: Q04DX002 (ip), vehicle: saline with Tween-80
[12] = dose: 25.0 mg/kg/injection, schedule: Q01DX009 (ip), vehicle: Klucel (hydroxypropylcellulose) (HPC)
[13] = dose: 50.0 mg/kg/injection, schedule: Q01DX009 (ip), vehicle: Klucel (hydroxypropylcellulose) (HPC)
[14] = dose: 100.0 mg/kg/injection, schedule: Q01DX009 (ip), vehicle: Klucel (hydroxypropylcellulose) (HPC)
[15] = dose: 200.0 mg/kg/injection, schedule: Q01DX009 (ip), vehicle: Klucel (hydroxypropylcellulose) (HPC)
[16] = dose: 12.5 mg/kg/injection, schedule: Q01DX009 (ip), vehicle: saline with Tween-80
[17] = dose: 25.0 mg/kg/injection, schedule: Q01DX009 (ip), vehicle: saline with Tween-80
[18] = dose: 6.25 mg/kg/injection, schedule: Q01DX009 (ip), vehicle: saline with Tween-80

Measured: T/C

CNC(=O)/C(=C\c1ccccc1Cl)NC(C)=O
inactive: [1] 97 % of control | [2] 93 % of control | [3] 93 % of control

Nc1nc(N)c2nc(-c3ccc(Cl)c(Cl)c3)c(N)nc2n1
inactive: dose: 12.5 mg/kg/injection, schedule: Q01DX009 (ip), vehicle: water 97 % of control | dose: 25.0 mg/kg/injection, schedule: Q01DX009 (ip), vehicle: water 97 % of control | dose: 50.0 mg/kg/injection, schedule: Q01DX009 (ip), vehicle: water 108 % of control | dose: 100.0 mg/kg/injection, schedule: Q01DX009 (ip), vehicle: water 93 % of control

Cc1ccc(C2=NNc3n[nH]c(=S)n3N2)cc1
inactive: [4] 101 % of control | [5] 95 % of control | [6] 96 % of control | [7] 93 % of control | [8] 91 % of control

CN(C)CCP(=O)(O)O
inactive: dose: 100.0 mg/kg/injection, schedule: Q04DX003 (ip), vehicle: saline 101 % of control | dose: 200.0 mg/kg/injection, schedule: Q04DX003 (ip), vehicle: saline 98 % of control | dose: 400.0 mg/kg/injection, schedule: Q04DX003 (ip), vehicle: saline 98 % of control

Nc1ncnc2c1[nH]c(=O)n2C1OC(CO)C(O)C1O (configuration not stated)
inactive: [9] 95 % of control | [10] 107 % of control | [11] 95 % of control

COC(=O)C1=NNC(C(=O)OC)=C(c2ccccc2)C(c2ccccc2)=N1
inactive: dose: 12.5 mg/kg/injection, schedule: Q01DX009 (ip), vehicle: Klucel (hydroxypropylcellulose) (HPC) 95 % of control | [12] 91 % of control | [13] 98 % of control | [14] 101 % of control | [15] 109 % of control | dose: 400.0 mg/kg/injection, schedule: Q01DX009 (ip), vehicle: Klucel (hydroxypropylcellulose) (HPC) 114 % of control

O=S(=O)(F)/C=C/c1ccccc1
inactive: [5] 88 % of control | [7] 97 % of control

Nc1cc(=O)[nH]c(=S)[nH]1.[Pd]
inactive: dose: 3.13 mg/kg/injection, schedule: Q04DX003 (ip), vehicle: distilled water + Tween-80 100 % of control | dose: 6.25 mg/kg/injection, schedule: Q04DX003 (ip), vehicle: distilled water + Tween-80 100 % of control | dose: 12.5 mg/kg/injection, schedule: Q04DX003 (ip), vehicle: distilled water + Tween-80 103 % of control | dose: 25.0 mg/kg/injection, schedule: Q04DX003 (ip), vehicle: distilled water + Tween-80 97 % of control | dose: 50.0 mg/kg/injection, schedule: Q04DX003 (ip), vehicle: distilled water + Tween-80 97 % of control | dose: 100.0 mg/kg/injection, schedule: Q04DX003 (ip), vehicle: distilled water + Tween-80 96 % of control | dose: 200.0 mg/kg/injection, schedule: Q04DX003 (ip), vehicle: distilled water + Tween-80 91 % of control

Cc1nc(N)[nH]c(=O)c1Cc1ccccc1O
inactive: dose: 100.0 mg/kg/injection, schedule: Q01DX001 (ip), vehicle: saline 100 % of control | dose: 200.0 mg/kg/injection, schedule: Q01DX001 (ip), vehicle: saline 97 % of control | dose: 400.0 mg/kg/injection, schedule: Q01DX001 (ip), vehicle: saline 97 % of control

Cc1ccc(S(=O)(=O)N(CCC(=O)O)c2ccccc2)cc1
inactive: [5] 101 % of control | [7] 97 % of control | [8] 98 % of control

CN(C)C(Cl)(Cl)Nc1ccc(Cl)cc1
inactive: [4] 91 % of control | [6] 107 % of control | dose: 400.0 mg/kg/injection, schedule: Q01DX009 (ip), vehicle: saline with Tween-80 113 % of control

CC(=O)NC1C(OS(=O)(=O)c2ccc(C)cc2)C(NC(C)=O)C(OC(C)=O)C(OC(C)=O)C1OC(C)=O (configuration not stated)
inactive: [1] 97 % of control | [2] 103 % of control | [3] 101 % of control

C1CC[N-]CC1.C1CC[N-]CC1.C1CC[N-]CC1.[Cl][Rh]([Cl])[Cl]
inactive: [16] 99 % of control | [17] 99 % of control

CCCCC1C/C=C/C=C/C=C/C=C/C(OC2OC(C)C(O)C(N)C2O)CC2OC(O)(CC(O)CC3OC3/C=C/C(=O)O1)CC(O)C2C(=O)O (configuration not stated)
inactive: dose: 3.5 mg/kg/injection, schedule: Q01DX009 (ip), vehicle: saline sonified 104 % of control | dose: 3.5 mg/kg/injection, schedule: Q04DX003 (ip), vehicle: saline sonified 91 % of control | dose: 7.0 mg/kg/injection, schedule: Q01DX009 (ip), vehicle: saline sonified 101 % of control | dose: 7.0 mg/kg/injection, schedule: Q04DX003 (ip), vehicle: saline sonified 93 % of control | dose: 14.0 mg/kg/injection, schedule: Q01DX009 (ip), vehicle: saline sonified 87 % of control | dose: 14.0 mg/kg/injection, schedule: Q04DX003 (ip), vehicle: saline sonified 91 % of control

CN(C)CCOc1ccc2c(c1)C/C(=C/c1ncc([N+](=O)[O-])n1C)C2=O
inactive: [18] 96 % of control and 98 % of control | [16] 107 % of control | [17] 107 % of control and 108 % of control | dose: 50.0 mg/kg/injection, schedule: Q01DX009 (ip), vehicle: saline with Tween-80 117 % of control and 107 % of control | [4] 119 % of control and 104 % of control | [6] 111 % of control

CCOC(=O)CC(=O)COC(=O)CC(=O)OCC
inactive: dose: 12.5 mg/kg/injection, schedule: Q01DX009 (ip), vehicle: other 96 % of control | dose: 25.0 mg/kg/injection, schedule: Q01DX009 (ip), vehicle: other 100 % of control | dose: 50.0 mg/kg/injection, schedule: Q01DX009 (ip), vehicle: other 94 % of control | dose: 100.0 mg/kg/injection, schedule: Q01DX009 (ip), vehicle: other 97 % of control | dose: 200.0 mg/kg/injection, schedule: Q01DX009 (ip), vehicle: other 97 % of control

O=C1OC(c2c[nH]c3ccccc23)c2ccccc21 (configuration not stated)
inactive: [1] 94 % of control | [2] 94 % of control | [3] 87 % of control

Nc1nc(Cl)cc(-c2ccccc2)n1
inactive: [5] 102 % of control | [7] 90 % of control | [8] 90 % of control

CCN(CC)C(=O)Nc1ccccc1Cl
inactive: [9] 105 % of control | [10] 108 % of control | [11] 94 % of control

CC(C)(C)OC(=O)NN=C1CCC(C(C)(C)C)CC1 (configuration not stated)
inactive: dose: 100.0 mg/kg/injection, schedule: Q01DX009 (ip), vehicle: saline 93 % of control | dose: 200.0 mg/kg/injection, schedule: Q01DX009 (ip), vehicle: saline 91 % of control | dose: 400.0 mg/kg/injection, schedule: Q01DX009 (ip), vehicle: saline 98 % of control

CC(Cl)CN(CC(C)Cl)c1ccc(N=Nc2ccccc2)cc1 (configuration not stated)
inactive: [13] 100 % of control | [14] 106 % of control | [15] 90 % of control

CC(=O)Nc1ccc(S(=O)(=O)OCCC#N)cc1
inactive: [4] 98 % of control | [6] 91 % of control

O=C1OC(=O)C2C1C1(c3ccccc3)OC2(c2ccccc2)c2ccccc21 (configuration not stated)
inactive: dose: 50.0 mg/kg/injection, schedule: Q01DX001 (ip), vehicle: saline with Tween-80 100 % of control | [1] 100 % of control | [2] 100 % of control

CC(C)C(O)(c1ccccc1)C(O)(c1ccccc1)C(C)C (configuration not stated)
inactive: dose: 50.0 mg/kg/injection, schedule: Q04DX002 (ip), vehicle: saline with Tween-80 100 % of control | [9] 96 % of control | [10] 100 % of control

CC(=O)Nc1c(Cl)c(Cl)c2c(c1Cl)Cc1cc(Br)ccc1-2
inactive: [12] 109 % of control

O=C(c1ccccc1)c1cc(Cl)ccc1N1C(=O)C=CC1=O
inactive: [18] 94 % of control | [16] 95 % of control | [17] 100 % of control

S=C(CCc1ccc2c(c1)CCCC2)N1CCOCC1
inactive: [5] 98 % of control | [7] 98 % of control | [8] 97 % of control

CCCCCCCCCCC/C=C\C(C#N)C(=O)OCC (configuration not stated)
inactive: [5] 103 % of control | [7] 108 % of control | [8] 87 % of control
